In one assay the target is T1, GST tagged PIP4KtypeIIB (Homo sapiens, UniProt P78356).
T1 construct: made in house; host or cells: E. coli
T1 sequence (P78356 1-416): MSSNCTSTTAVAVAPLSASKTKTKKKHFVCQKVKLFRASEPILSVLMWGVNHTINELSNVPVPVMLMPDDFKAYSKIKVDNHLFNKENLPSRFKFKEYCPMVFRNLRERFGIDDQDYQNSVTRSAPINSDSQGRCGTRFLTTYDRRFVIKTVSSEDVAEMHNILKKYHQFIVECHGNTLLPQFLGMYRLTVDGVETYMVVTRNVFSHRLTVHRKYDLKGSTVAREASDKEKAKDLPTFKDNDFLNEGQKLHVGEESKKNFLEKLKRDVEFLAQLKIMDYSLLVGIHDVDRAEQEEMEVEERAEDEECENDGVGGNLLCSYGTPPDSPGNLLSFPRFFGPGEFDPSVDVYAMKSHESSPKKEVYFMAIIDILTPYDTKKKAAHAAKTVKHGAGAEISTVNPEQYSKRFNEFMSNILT
The experiment in a line: Trans-FI P kinase assay PIP4K2B (PIP4KtypeIIB inhibition assay). It counts as biochemical. To be noted: Table 4; compounds listed under IC50 range headings; 100 uM GTP, 5 nM PIP4KIIB; read-out: Trans-FI P kinase assays: PIP4K2B IC50. Put shortly:
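Purified GST-PIP4KIIB (5 nM final), 1 h preincubation with compound at 27 C, then 2 h reaction with 100 uM GTP and 80 uM PI5P plus DOPE carrier lipid in pH 7.3 HEPES/MgCl2/Triton buffer with 5% DMSO. GDP read by Transcreener FI fluorescence against a calibration curve; IC50 from % no-inhibitor activity vs log concentration.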

Another assay deals with T2, GST tagged PIP4KtypeIIA (Homo sapiens, UniProt P48426).
T2 construct: made in house; host or cells: E. coli
T2 sequence (P48426 1-406): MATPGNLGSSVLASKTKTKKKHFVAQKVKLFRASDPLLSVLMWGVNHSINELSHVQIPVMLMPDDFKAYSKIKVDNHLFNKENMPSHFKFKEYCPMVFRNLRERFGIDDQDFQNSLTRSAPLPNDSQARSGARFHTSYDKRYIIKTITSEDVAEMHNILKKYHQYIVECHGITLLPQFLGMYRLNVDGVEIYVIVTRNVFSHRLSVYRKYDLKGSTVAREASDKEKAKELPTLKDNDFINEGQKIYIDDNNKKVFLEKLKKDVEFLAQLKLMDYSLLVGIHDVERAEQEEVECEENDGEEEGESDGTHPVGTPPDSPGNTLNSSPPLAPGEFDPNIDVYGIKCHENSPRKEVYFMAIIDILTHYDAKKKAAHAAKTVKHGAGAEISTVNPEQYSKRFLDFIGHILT
In words: ADP-glo kinase assay PIP4K 2A (PIP4KtypeIIA inhibition assay). It is filed as biochemical. To be noted: Table 3; compounds listed under IC50 range headings; 10 uM ATP, 0.5 nM PIP4KIIA. Put shortly:
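E. coli-expressed GST-PIP4KtypeIIA (0.5 nM final) was preincubated 1 h at 27 °C with compound (up to 4.8 μM, 5% DMSO) in PI5P/DOPE lipid in 50 mM HEPES pH 7.3 with 10 mM MgCl2. The reaction was started with 10 μM ATP (final) and run 1 h. ADP was read by ADP-Glo luminescence via a calibration curve, and IC50 was taken from % residual activity.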
On the technique in general: In ADP-Glo the light output rises with the ADP produced.

In assay [1] the target is T3, PIP4K2A (full length protein, SignalChem) (Homo sapiens, UniProt P48426).
T3 construct: 4 nM PIP4K2A (full length protein, SignalChem); purchased SignalChem
T3 sequence (P48426 1-406): T2 sequence (P48426 1-406)
The experiment in a line: Kinase Assay PIP4K2 A (Sprint); ADP-Glo biochemical assay. The conditions noted are these: Table 2; compounds listed under IC50 range headings. Put shortly: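 Compounds (10-point, 3-fold dilutions) were pre-incubated 15 min at RT with an enzyme/substrate mix of 4 nM full-length PIP4K2A and 100 μM PI(5)P diC8 in 20 mM MOPS pH 7.2, 25 mM MgCl2, 0.005% Tween 20. A 60 μM ATP solution was added, reaction 1 h RT; ADP read by ADP-Glo luminescence, IC50 fitted from % inhibition vs DMSO.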

As usually defined, the IC50 is the concentration at which inhibition is half-maximal. Consider `CC(O)c1cnc2[nH]cc(-c3cncc(-c4ccc(N5CCCC5=O)cc4)c3)c2c1` (stereo not drawn) [Example 48, 1-(4-(5-(5-(1-hydroxyethyl)-1H-pyrrolo[2,3-b]pyridin-3-yl)pyridin-3-yl)phenyl)pyrrolidin-2-one], for which the IC50 on GST tagged PIP4KtypeIIB was in the range of 10 to 100 nM; against GST tagged PIP4KtypeIIA it was 100 to 1000 nM; in assay [1], 5 to 100 nM.
For `CNC(=O)c1cc2c(-c3cncc(-c4ccc(N5CCCC5=O)cc4)c3)ccnc2o1` [Example 49, N-methyl-4-(5-(4-(2-oxopyrrolidin-1-yl)phenyl)pyridin-3-yl)furo[2,3-b]pyridine-2-carboxamide] the same measures were 10 to 100 nM, 10 to 100 nM and 5 to 100 nM.
For `CN(C)C(=O)c1cc2c(-c3cncc(-c4ccc(N5CCCC5=O)cc4)c3)ccnc2o1` [Example 50, N,N-dimethyl-4-(5-(4-(2-oxopyrrolidin-1-yl)phenyl)pyridin-3-yl)furo[2,3-b]pyridine-2-carboxamide] the same measures were 10 to 100 nM, 100 to 1000 nM and 5 to 100 nM.
For `N#Cc1[nH]c2ncccc2c1-c1cncc(-c2ccc(N3CCCC3=O)cc2)c1` [Example 51, 3-(5-(4-(2-oxopyrrolidin-1-yl)phenyl)pyridin-3-yl)-1H-pyrrolo[2,3-b]pyridine-2-carbonitrile] the same measures were 10 to 100 nM, 100 to 1000 nM and 5 to 100 nM.
Turning to `Cn1cc(-c2cncc(-c3ccc(N4CCCC4=O)cc3)c2)c2cn[nH]c2c1=O` [Example 54, 6-methyl-4-(5-(4-(2-oxopyrrolidin-1-yl)phenyl)pyridin-3-yl)-1,6-dihydro-7H-pyrazolo[3,4-c]pyridin-7-one], the IC50 on GST tagged PIP4KtypeIIB lay in the range of 100 to 1000 nM; against GST tagged PIP4KtypeIIA it was 100 to 1000 nM; in assay [1] it was 5 to 100 nM.
Consider `Cn1cc(-c2cncc(-c3ccc(N4CCCC4=O)cc3)c2)c2cnn(C)c2c1=O` [Example 55, 1,6-dimethyl-4-(5-(4-(2-oxopyrrolidin-1-yl)phenyl)pyridin-3-yl)-1,6-dihydro-7H-pyrazolo[3,4-c]pyridin-7-one], for which the half-inhibitory concentration (IC50) on GST tagged PIP4KtypeIIB was in the range of 100 to 1000 nM; against GST tagged PIP4KtypeIIA, 100 to 1000 nM; in assay [1] it was 5 to 100 nM.
For `Cn1cc(-c2cncc(-c3ccc(N4CCCC4=O)cc3)c2)c2cc(N3CCNCC3)cnc21` [Example 56, 1-(4-(5-(1-methyl-5-(piperazin-1-yl)-1H-pyrrolo[2,3-b]pyridin-3-yl)pyridin-3-yl)phenyl)pyrrolidin-2-one], the IC50 on GST tagged PIP4KtypeIIB lay within 2500 to 5000 nM; at GST tagged PIP4KtypeIIA it was 1000 to 2500 nM; in assay [1], 100 to 1000 nM.
For `CC(=O)N(C)c1cc(-c2cncc(-c3ccc(N4CCCC4=O)cc3)c2)ccn1` [Example 57, N-methyl-N-(5-(4-(2-oxopyrrolidin-1-yl)phenyl)-[3,4′-bipyridin]-2′-yl)acetamide] the same measures were over 5000 nM, over 5000 nM and under 5000 nM.
For `O=C1CCCN1c1ccc(-c2cncc(-c3ccnc4[nH]ccc34)c2)cc1` [Example 58, 1-(4-(5-(1H-pyrrolo[2,3-b]pyridin-4-yl)pyridin-3-yl)phenyl)pyrrolidin-2-one] the same measures were 100 to 1000 nM, 2500 to 5000 nM and 5 to 100 nM.
For `CCOc1cnc2[nH]ccc2c1-c1cncc(-c2ccc(N3CCCC3=O)cc2)c1` [Example 59, 1-(4-(5-(5-ethoxy-1H-pyrrolo[2,3-b]pyridin-4-yl)pyridin-3-yl)phenyl)pyrrolidin-2-one] the same measures were 100 to 1000 nM, 1000 to 2500 nM and 100 to 1000 nM.
Take `CNC(=O)c1cnc2c(c1)c(-c1cncc(-c3ccc(N4CCCC4=O)cc3)c1)cn2C` [Example 60, N,1-dimethyl-3-(5-(4-(2-oxopyrrolidin-1-yl)phenyl)pyridin-3-yl)-1H-pyrrolo[2,3-b]pyridine-5-carboxamide]: the IC50 at GST tagged PIP4KtypeIIB fell in the range of 100 to 1000 nM; against GST tagged PIP4KtypeIIA, 100 to 1000 nM; in assay [1] it was 5 to 100 nM.
For the molecule `CN(C)C(=O)c1cnc2c(c1)c(-c1cncc(-c3ccc(N4CCCC4=O)cc3)c1)cn2C` [Example 61, N,N,1-trimethyl-3-(5-(4-(2-oxopyrrolidin-1-yl)phenyl)pyridin-3-yl)-1H-pyrrolo[2,3-b]pyridine-5-carboxamide], the IC50 was in the range of 100 to 1000 nM at GST tagged PIP4KtypeIIB, 100 to 1000 nM against GST tagged PIP4KtypeIIA and 5 to 100 nM in assay [1].
On to `CC(O)c1cnc2c(c1)c(-c1cncc(-c3ccc(N4CCCC4=O)cc3)c1)cn2C` (stereo not drawn) [Example 62, 1-(4-(5-(5-(1-hydroxyethyl)-1-methyl-1H-pyrrolo[2,3-b]pyridin-3-yl)pyridin-3-yl)phenyl)pyrrolidin-2-one], for which the figures for the IC50 (at GST tagged PIP4KtypeIIB; at GST tagged PIP4KtypeIIA; in assay [1]) were 1000 to 2500 nM, 100 to 1000 nM and 5 to 100 nM, respectively.
For `CS(=O)(=O)N1Cc2nccc(-c3cncc(-c4ccc(N5CCCC5=O)cc4)c3)c2C1` [Example 64, 1-(4-(5-(6-(methylsulfonyl)-6,7-dihydro-5H-pyrrolo[3,4-b]pyridin-4-yl)pyridin-3-yl)phenyl)pyrrolidin-2-one] the same measures were over 5000 nM, over 5000 nM and 100 to 1000 nM.
For `COC(=O)N1Cc2nccc(-c3cncc(-c4ccc(N5CCCC5=O)cc4)c3)c2C1` [Example 65, methyl 4-(5-(4-(2-oxopyrrolidin-1-yl)phenyl)pyridin-3-yl)-5,7-dihydro-6H-pyrrolo[3,4-b]pyridine-6-carboxylate], the IC50 on GST tagged PIP4KtypeIIB is 1000 to 2500 nM; on GST tagged PIP4KtypeIIA it was 1000 to 2500 nM; in assay [1], 100 to 1000 nM.
Consider `O=C1CCCN1c1ccc(-c2cncc(-c3c(OC4CCCNC4)cnc4[nH]ccc34)c2)cc1` (stereo not drawn) [Example 66, 1-(4-(5-(5-(piperidin-3-yloxy)-1H-pyrrolo[2,3-b]pyridin-4-yl)pyridin-3-yl)phenyl)pyrrolidin-2-one], for which the IC50 on GST tagged PIP4KtypeIIB is over 5000 nM; against GST tagged PIP4KtypeIIA it was over 5000 nM; in assay [1], under 5000 nM.
For `O=C1CCCN1c1ccc(-c2cncc(-c3cn(Cc4ccccc4)c(=O)c4[nH]ncc34)c2)cc1` [Example 67, 6-benzyl-4-(5-(4-(2-oxopyrrolidin-1-yl)phenyl)pyridin-3-yl)-1,6-dihydro-7H-pyrazolo[3,4-c]pyridin-7-one], the figures for the half-inhibitory concentration (IC50) (at GST tagged PIP4KtypeIIB; against GST tagged PIP4KtypeIIA; in assay [1]) were 100 to 1000 nM, 100 to 1000 nM and 5 to 100 nM, respectively.
Turning to `CC(C)Cn1cc(-c2cncc(-c3ccc(N4CCCC4=O)cc3)c2)c2cn[nH]c2c1=O` [Example 68, 6-isobutyl-4-(5-(4-(2-oxopyrrolidin-1-yl)phenyl)pyridin-3-yl)-1,6-dihydro-7H-pyrazolo[3,4-c]pyridin-7-one], the IC50 lay in the range of 10 to 100 nM on GST tagged PIP4KtypeIIB, 10 to 100 nM against GST tagged PIP4KtypeIIA and 5 to 100 nM in assay [1].
As for `O=C1CCCN1c1ccc(-c2cncc(-c3cn(CC4CCOCC4)c(=O)c4[nH]ncc34)c2)cc1` [Example 69, 4-(5-(4-(2-oxopyrrolidin-1-yl)phenyl)pyridin-3-yl)-6-((tetrahydro-2H-pyran-4-yl)methyl)-1,6-dihydro-7H-pyrazolo[3,4-c]pyridin-7-one], the IC50 was 100 to 1000 nM on GST tagged PIP4KtypeIIB, 1000 to 2500 nM against GST tagged PIP4KtypeIIA and 5 to 100 nM in assay [1].
For `Cn1ncc2c(-c3cncc(-c4ccc(N5CCCC5=O)cc4)c3)cn(CC3CCOCC3)c(=O)c21` [Example 70, 1-methyl-4-(5-(4-(2-oxopyrrolidin-1-yl)phenyl)pyridin-3-yl)-6-((tetrahydro-2H-pyran-4-yl)methyl)-1,6-dihydro-7H-pyrazolo[3,4-c]pyridin-7-one] the same measures were 100 to 1000 nM, 100 to 1000 nM and 5 to 100 nM.

The values are drawn from patent publication US11919902B2, “Aryl-bipyridine amine derivatives as phosphatidylinositol phosphate kinase inhibitors” (HiberCell, Inc., priority 2017, dated 2024).
